The values below come from patent publication US20260083751A1, “ALLOSTERIC MODULATORS OF ANDROGEN RECEPTOR COACTIVATOR RECRUITMENT FOR CRPC THERAPY” (University of Pittsburgh – Of the Commonwealth System of …, priority 2022, published 2026).

SMILES strings stand for the structures. “And” between values parts separate entries of the source, which are not always exact repeats. Identical values can stand only once.

As a reminder, the IC50 is the concentration needed to halve the response being measured. Usually GI50 stands for the concentration that inhibits growth by half. Read a low GI50 as greater sensitivity of the cells.

The target in the first test is T1, AR-LBD / TIF2 box III LXXLL peptide (Homo sapiens, UniProt P10275).
T1 construct: The pET28a-AR-LBD (622-919) construct; made in house
T1 sequence (P10275 622-919): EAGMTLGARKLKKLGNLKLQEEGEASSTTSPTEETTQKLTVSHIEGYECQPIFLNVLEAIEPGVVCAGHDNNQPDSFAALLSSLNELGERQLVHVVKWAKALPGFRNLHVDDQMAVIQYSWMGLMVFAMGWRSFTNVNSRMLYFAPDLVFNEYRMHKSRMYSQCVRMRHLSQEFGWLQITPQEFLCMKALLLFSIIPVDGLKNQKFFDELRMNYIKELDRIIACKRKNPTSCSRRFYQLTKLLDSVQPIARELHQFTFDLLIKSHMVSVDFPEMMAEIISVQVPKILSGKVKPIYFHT
Nature of the test: AR-LBD::TIF2 Box III LXXLL peptide binding AlphaScreen assay.
Conditions: not given
How it is done: […] Biotinylated (Biotin-HN-[…]-CONH2; SEQ ID NO: 1) and non-biotinylated TIF2-box-III (738-756) peptide (H2N-[…]-CONH2; SEQ ID NO: 2) were synthesized by the Peptide & Peptoid Synthesis Facility, at the University of Pittsburgh Health Sciences Core Research Facilities. ALPHAScreen® streptavidin donor beads (SA-DB) and nickel chelate acceptor beads (Ni-AB) were purchased from Perkin Elmer (Waltham, MA). The assay was performed in 384-well white opaque plates (Greiner BioOne, #781080). […] 18 μL of the SA-DB bound biotinylated TIF2 peptide mixture was added to the assay plate before 5 μL of compounds were transferred into assay wells and 27 μL of the AlphaScreen® donor and acceptor B bead mixture was added to the plate. 32 wells containing 0.5% DMSO provided maximum controls and 32 wells containing a 500-fold excess of unlabeled TIF2-box-III (75 μM) were used as minimum controls. The combined head-protein-peptide-compound mixture was incubated for 1 h at room temperature in the dark, and then the RLU's were acquired at 520 nm after excitation at 680 nm on an EnVision® plate reader (Perkin Elmer, Waltham, MA) as described previously (Fancher et al., Assay Drug Dev Technol. 2019, 17:364-386).
`Cc1ccccc1-c1cc(O)c2c(c1)CN(c1nccs1)CCO2` [Compound S1-3]: the “IC50 in TIF2 LXXLL-peptide AR-LBD binding assay (potency range in words)” value is “mid 44 μM”.

For the molecule `Cc1nc(N)cc(N2CCOc3c(O)cc(-c4ccccc4C)cc3C2)n1` [Compound S1-2], the “IC50 in TIF2 LXXLL-peptide AR-LBD binding assay (potency range in words)” value is given as “mid 44 μM”.

Staying with this test, now noted: AlphaScreen; read-out: Inhibition DHT-induced TIF2 NR Box 3 LXXLL peptide binding to AR-LBD IC50.
Consider `Cc1nsc(NC(=O)N2CCC(Sc3ccccc3C)CC2)n1` [Compound S2-6], for which the IC50 amounted to 49.5 µM.

As to `Cc1ccccc1-c1cc(O)c2c(c1)CN(c1nccs1)CCO2` [Compound S1-3], the IC50 lay in the range of 21 to 83 µM.

In the case of `CNC(=O)c1ccc(-c2c[nH]c3c(C)cccc23)cc1` [Compound S3-21], the IC50 was above 100 µM.

In the case of `Cc1nc(N)cc(N2CCOc3c(O)cc(-c4ccccc4C)cc3C2)n1` [Compound S1-2], the IC50 was in the range of 21 to 83 µM.

As for `Cc1c(-c2ccccc2F)[nH]c2ccc(CNC(=O)CCc3cnccn3)cc12` [Compound S3-12], the IC50 is above 100 µM.

With `Cc1ccccc1-c1cc(O)c2c(c1)CN(c1nc(C(N)=O)cs1)CCO2` [Compound S1-1], the IC50 was 21 to 83 µM and 12 µM.

Consider `COc1cc(-c2ccc(C)s2)cc2c1OCCN(c1nc(C(N)=O)cs1)C2` [Compound S1-5], for which the IC50 was above 100 µM.

As for `CC(=O)NCCC(=O)NCc1ccc2[nH]c(-c3ccccc3F)c(C)c2c1` [Compound S3-13], the IC50 was 92 µM.

For the molecule `Cc1c(-c2ccccc2F)[nH]c2ccc(CNC(=O)CCc3cn[nH]c3)cc12` [Compound S3-11], the half-maximal inhibitory concentration (IC50) is 50 µM and 45.2 µM.

Staying with this test, now noted: read-out: IC50 in TIF2 LXXLL-peptide AR-LBD binding assay (potency range in words).
For `Cc1nsc(NC(=O)N2CCC(Sc3ccccc3C)CC2)n1` [Compound S2-6], the IC50 was in the range of 10 to 100 µM.

In the case of `Cc1cccc2c(-c3ccc(O)c(F)c3)c[nH]c12` [Compound S3-17], the IC50 was in the range of 1 to 10 µM.

As for `Cc1c(-c2ccccc2F)[nH]c2ccc(CNC(=O)c3ccc(CO)o3)cc12` [Compound S3-14], the IC50 was in the range of 10 to 100 µM.

With `Cc1c(-c2ccc(F)cc2)[nH]c2ccc(CNC(=O)c3ccc(CO)o3)cc12` [Compound S3-15], the IC50 was 10 to 100 µM.

Turning to `Cc1ccccc1-c1cc(O)c2c(c1)CN(c1nc(C(N)=O)cs1)CCO2` [Compound S1-1], the IC50 lay in the range of 10 to 100 µM.

`CC(=O)NCCC(=O)NCc1ccc2[nH]c(-c3ccccc3F)c(C)c2c1` [Compound S3-13]: the half-inhibitory concentration (IC50) was in the range of 10 to 100 µM.

As for `Cc1c(-c2ccccc2F)[nH]c2ccc(CNC(=O)CCc3cn[nH]c3)cc12` [Compound S3-11], the half-maximal inhibitory concentration (IC50) lay within 10 to 100 µM.

System in a further test: not listed separately
The experiment in a line: GI50 given in Tables 4-6 (test not described). The format is cell-based. The following applies: cell line not stated.
For `Cc1nsc(NC(=O)N2CCC(Sc3ccccc3C)CC2)n1` [Compound S2-6], the GI50 is above 100 µM.

`Cc1ccccc1-c1cc(O)c2c(c1)CN(c1cc(N)ncn1)CCO2` [Compound S1-4] returned a GI50 above 100 µM.

The molecule `Cc1cccc2c(-c3ccc(O)c(F)c3)c[nH]c12` [Compound S3-17] had a GI50 of 99 µM.

`Cc1ccccc1-c1cc(O)c2c(c1)CN(c1nccs1)CCO2` [Compound S1-3] came in with a GI50 above 100 µM.

Molecule `CNC(=O)c1ccc(-c2c[nH]c3c(C)cccc23)cc1` [Compound S3-21] had a 50% growth inhibitory concentration (GI50) above 100 µM.

`Cc1nc(N)cc(N2CCOc3c(O)cc(-c4ccccc4C)cc3C2)n1` [Compound S1-2] gave a GI50 of 51.9 µM.

Molecule `Cc1c(-c2ccccc2F)[nH]c2ccc(CNC(=O)CCc3cnccn3)cc12` [Compound S3-12] showed a GI50 above 100 µM.

`Cc1c(-c2ccccc2F)[nH]c2ccc(CNC(=O)c3ccc(CO)o3)cc12` [Compound S3-14]: the GI50 was above 100 µM.

Turning to `Cc1c(-c2ccc(F)cc2)[nH]c2ccc(CNC(=O)c3ccc(CO)o3)cc12` [Compound S3-15], the GI50 was above 100 µM.

Take `Cc1ccccc1-c1cc(O)c2c(c1)CN(c1nc(C(N)=O)cs1)CCO2` [Compound S1-1]: the 50% growth inhibitory concentration (GI50) is above 100 µM.

For `COc1cc(-c2ccc(C)s2)cc2c1OCCN(c1nc(C(N)=O)cs1)C2` [Compound S1-5], the GI50 was above 100 µM.

Turning to `CC(=O)NCCC(=O)NCc1ccc2[nH]c(-c3ccccc3F)c(C)c2c1` [Compound S3-13], the GI50 is above 100 µM.

For the molecule `Cc1nsc(NC(=O)N2CCC(Cn3ccnc3)CC2)n1` [Compound S2-7], the GI50 is above 100 µM.

As to `Cc1c(-c2ccccc2F)[nH]c2ccc(CNC(=O)CCc3cn[nH]c3)cc12` [Compound S3-11], the GI50 is above 100 µM.

Another test deals with PC-3, DU-145, LNCaP, C4-2, and 22Rv1 PC cell lines. Nature of the test: Prostate cancer cell line growth inhibition assays, results stated across cell lines. The format is cell-based. The following applies: 2 AR+ cell lines, not named. How it is done:
Prostate Cancer Cell Line Growth Inhibition Assays: The PC-3, DU-145, LNCaP, C4-2, and 22Rv1 PC cell line growth inhibition assays have been described previously (Fancher et al., Assay Drug Dev Technol. 2016, 14:453-477; Fancher et al., Assay Drug Dev Technol. 2019, 17:364-386). On day 1, each PC cell line was harvested, counted, and seeded into two 384-well assay plates, a time zero (T0) and a time 72 h (T72) plate. PC cell lines were all seeded at 1,000 cells per well in 45 μL of tissue culture media in uncoated white clear bottom 384-well assay plates (VWR, #82050-076) using a Matrix electronic multichannel pipette (Thermo Fisher Scientific, Waltham, MA) and cultured overnight at 37° C., 5% CO2, and 95% humidity. On day 2, 25 μL of the CellTiter-Glo® (CTG) (Promega Corporation, Madison, WI) detection reagent was dispensed into the wells of the TO assay plate using a Matrix electronic multichannel pipette, and the RLUs were captured on the SpectraMax® M5e (Molecular Devices LLC, Sunnyvale, CA) microtiter plate reader. Also on day 2, 5 μL of compounds were transferred into the test wells of the T72 384-well assay plates which were returned to the incubator for 72 h. Control wells received DMSO alone. On day 5, 25 μL of the CTG detection reagent was dispensed into the wells of the T72 assay plate using a Matrix electronic multichannel pipette, and the RLU's were captured on the SpectraMax® M5e microtiter plate reader platform.
For the 96-well AR-LBD H^3-DHT radioligand binding assay, eight minimum and maximum plate control wells were utilized to normalize the data. For the PC cell line growth inhibition assays the DMSO control data from the TO and T72 assay plates was used to assess the dynamic range of the T0 to T72 cell growth, and to calculate S:B ratios and Z′-factor coefficient statistics for the assay signal window (T0 to T72). To normalize the 72 h compound exposure PC growth inhibition data, the signals from the compound treated wells were processed and expressed as % of the T72 DMSO plate controls. IC50 and GI50 values for each of the bioassays were calculated using GraphPad Prism 9 software to plot and fit data to curves using the Sigmoidal dose response variable slope equation Y=Bottom+[Top-Bottom]/[1+10^(Log EC50−X)*HillSlope].
On to `CC(=O)NCCC(=O)NCc1ccc2[nH]c(-c3ccccc3F)c(C)c2c1` [Compound S3-13], for which the “GI50s against 2 AR+ PCa cell lines” value lay in the range of 68 to 70 µM.

Staying with this test, now noted: 4 cell lines, not named.
For `CNC(=O)c1ccc(-c2c[nH]c3c(C)cccc23)cc1` [Compound S3-21], the “GI50s against 4 PCa cell lines” value was in the range of 13 to 55 µM.

The same test, now with this note: 72 h growth inhibition.
`Cc1ccccc1-c1cc(O)c2c(c1)CN(c1cc(N)ncn1)CCO2` [Compound S1-4]: the “Relative potency in AR positive versus AR negative PC cell lines” value (from here on “Relative potency”) is listed as “equipotent against all 5 PC cell lines”.

Turning to `Cc1cccc2c(-c3ccc(O)c(F)c3)c[nH]c12` [Compound S3-17], the “Relative potency” value is “roughly equipotent against all 5 PC cell lines”.

For `Cc1ccccc1-c1cc(O)c2c(c1)CN(c1nccs1)CCO2` [Compound S1-3], the “Relative potency” value was “differential cytotoxicity in AR positive PC cell lines”.

Take `CNC(=O)c1ccc(-c2c[nH]c3c(C)cccc23)cc1` [Compound S3-21]: the “Relative potency” value is “differential cytotoxicity in AR positive PC cell lines”.

Take `Cc1nc(N)cc(N2CCOc3c(O)cc(-c4ccccc4C)cc3C2)n1` [Compound S1-2]: the “Relative potency” value is recorded as “equipotent against all 5 PC cell lines”.

`Cc1c(-c2ccccc2F)[nH]c2ccc(CNC(=O)CCc3cnccn3)cc12` [Compound S3-12]: the “Relative potency” value is reported as “roughly equipotent against all 5 PC cell lines”.

Consider `Cc1c(-c2ccccc2F)[nH]c2ccc(CNC(=O)c3ccc(CO)o3)cc12` [Compound S3-14], for which the “Relative potency” value was “differential cytotoxicity in AR positive PC cell lines”.

As for `Cc1c(-c2ccc(F)cc2)[nH]c2ccc(CNC(=O)c3ccc(CO)o3)cc12` [Compound S3-15], the “Relative potency” value was “roughly equipotent against all 5 PC cell lines”.

`CC(=O)NCCC(=O)NCc1ccc2[nH]c(-c3ccccc3F)c(C)c2c1` [Compound S3-13]: the “Relative potency” value is “roughly equipotent against all 5 PC cell lines”.

`Cc1c(-c2ccccc2F)[nH]c2ccc(CNC(=O)CCc3cn[nH]c3)cc12` [Compound S3-11]: the “Relative potency” value is recorded as “differential cytotoxicity in AR positive PC cell lines”.

The same test, now with this note: LNCaP, C4-2, 22Rv1.
For the molecule `Cc1nsc(NC(=O)N2CCC(Sc3ccccc3C)CC2)n1` [Compound S2-6], the “GI50s against the 3 AR+ PCa cell lines” value was in the range of 14 to 19 µM.

Take `Cc1c(-c2ccccc2F)[nH]c2ccc(CNC(=O)c3ccc(CO)o3)cc12` [Compound S3-14]: the “GI50s against the 3 AR+ PCa cell lines” value lay in the range of 30 to 100 µM.

As to `Cc1nsc(NC(=O)N2CCC(Cn3ccnc3)CC2)n1` [Compound S2-7], the “GI50s against the 3 AR+ PCa cell lines” value was in the range of 30 to 64 µM.

Staying with this test, now noted: PC-3 and DU-145.
Take `Cc1nsc(NC(=O)N2CCC(Cn3ccnc3)CC2)n1` [Compound S2-7]: the “GI50s in AR negative cell lines” value was around 94 µM.

The test is the same for the next values; noted with them: all 5 cell lines, 72 h.
With `Cc1ccccc1-c1cc(O)c2c(c1)CN(c1nccs1)CCO2` [Compound S1-3], the “GI50s against all 5 PCa cell lines” value lay within 44 to 75 µM.

Regarding `Cc1ccccc1-c1cc(O)c2c(c1)CN(c1nc(C(N)=O)cs1)CCO2` [Compound S1-1], the “GI50s against all 5 PCa cell lines” value lay within 29 to 70 µM.

Regarding `COc1cc(-c2ccc(C)s2)cc2c1OCCN(c1nc(C(N)=O)cs1)C2` [Compound S1-5], the “GI50s against all 5 PCa cell lines” value was above 100 µM.

In the case of `Cc1nsc(NC(=O)N2CCC(Cn3ccnc3)CC2)n1` [Compound S2-7], the “GI50s against all 5 PCa cell lines” value is 30 to 94 µM.
